pIC50, pKi: −log10 of the molar value.
Assays:
[1] = target: T1, Lysophosphatidic acid receptor 3 (Homo sapiens, UniProt Q9UBY5); experiment: Antagonist activity at Lysophosphatidic acid 3 (LPA3) receptor
T1 sequence (Q9UBY5 whole entry): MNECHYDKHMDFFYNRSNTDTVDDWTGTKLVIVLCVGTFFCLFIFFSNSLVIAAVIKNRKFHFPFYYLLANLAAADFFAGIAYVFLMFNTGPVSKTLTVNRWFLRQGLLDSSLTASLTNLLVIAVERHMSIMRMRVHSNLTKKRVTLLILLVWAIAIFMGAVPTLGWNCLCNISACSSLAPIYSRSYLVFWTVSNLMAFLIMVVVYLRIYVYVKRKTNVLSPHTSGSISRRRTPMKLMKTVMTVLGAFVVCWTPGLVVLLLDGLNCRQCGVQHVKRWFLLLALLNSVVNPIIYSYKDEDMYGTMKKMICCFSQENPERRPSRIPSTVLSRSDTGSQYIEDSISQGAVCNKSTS

[2] = target: T2, Lysophosphatidic acid receptor 1 (Homo sapiens, UniProt Q92633); experiment: Binding affinity towards Lysophosphatidic acid 1 (LPA1) receptor
[3] = target: T2, Lysophosphatidic acid receptor 1; experiment: Inhibitory concentration against Lysophosphatidic acid 1 (LPA1) receptor

T2 sequence (Q92633 whole entry): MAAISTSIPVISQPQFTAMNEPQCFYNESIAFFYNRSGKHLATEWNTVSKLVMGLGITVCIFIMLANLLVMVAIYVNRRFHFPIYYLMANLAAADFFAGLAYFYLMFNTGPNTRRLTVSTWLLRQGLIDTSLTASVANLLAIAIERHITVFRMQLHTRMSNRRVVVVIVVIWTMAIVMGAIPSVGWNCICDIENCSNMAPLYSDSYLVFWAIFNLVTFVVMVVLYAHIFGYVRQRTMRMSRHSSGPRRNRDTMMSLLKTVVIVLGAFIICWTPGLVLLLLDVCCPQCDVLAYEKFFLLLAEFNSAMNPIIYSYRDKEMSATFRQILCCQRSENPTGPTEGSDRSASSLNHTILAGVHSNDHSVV

Row | SMILES | pIC50 [1] | pKi [2] | pIC50 [3]
1 | CCCCCCCCCCCCCCCC(=O)N[C@H](CCP(=O)(O)O)Cc1ccc(OCc2ccccn2)cc1 | 5.98 | – | < 5.00
2 | CCCCCCCC/C=C\CCCCCCCC(=O)N[C@@H](COP(=O)(O)O)Cc1ccc(OCc2cc(OC)c3ccccc3n2)cc1 | 5.94 | – | 6.02
3 | CCCCCCCC/C=C\CCCCCCCC(=O)N[C@@H](Cc1ccc(OCc2ccccc2)cc1)CC(O)P(=O)(O)O (stereo partly specified) | 6.63 | – | 5.37
4 | CCCCCCCC/C=C\CCCCCCCC(=O)N[C@@H](COP(=O)(O)O)Cc1ccc(OCc2cccnc2)cc1 | 5.77 | – | 6.00
5 | CCCCCCCC/C=C\CCCCCCCC(=O)N[C@H](COP(=O)(O)O)Cc1ccc(OCc2cc(OC)c3ccccc3n2)cc1 | 5.59 | – | < 5.00
6 | CCCCCCCC/C=C\CCCCCCCC(=O)N[C@H](COP(=O)(O)O)Cc1ccc(OCc2cccnc2)cc1 | 5.21 | – | 5.35
7 | CCCCCCCC/C=C\CCCCCCCC(=O)N[C@H](COP(=O)(O)O)Cc1ccc(OCc2ncc(C)c(OC)c2C)cc1 | 6.25 | – | 5.43
8 | CCCCCCCC/C=C\CCCCCCCC(=O)N[C@@H](COP(=O)(O)O)Cc1ccc(OCc2ccc3ccccc3n2)cc1 | 6.27 | – | 5.84
9 | CCCCCCCC/C=C\CCCCCCCC(=O)N[C@@H](COP(=O)(O)O)Cc1ccc(OCc2ncc(C)c(OC)c2C)cc1 | 7.41 | 7.55 | 7.21
10 | CCCCCCCC/C=C\CCCCCCCC(=O)N[C@@H](CCP(=O)(O)O)Cc1ccc(OCc2ccccn2)cc1 | < 5.00 | – | < 5.00
11 | CCCCCCCC/C=C\CCCCCCCC(=O)N[C@H](CCP(=O)(O)O)Cc1ccc(OCc2ccccn2)cc1 | < 5.00 | – | < 5.00
12 | CCCCCCCC/C=C\CCCCCCCC(=O)N[C@H](CCP(=O)(O)O)Cc1ccc(OCc2ncc(C)c(OC)c2C)cc1 | 5.40 | – | < 5.00
13 | CCCCCCCC/C=C\CCCCCCCC(=O)N[C@@H](CCP(=O)(O)O)Cc1ccc(OCc2ncc(C)c(OC)c2C)cc1 | 6.82 | – | < 5.00

The next lines start with the values.

Row | pIC50 [1] | pKi [2] | pIC50 [3] | SMILES
14 | 7.41 | 7.59 | 6.84 | CCCCCCCC/C=C\CCCCCCCC(=O)N[C@@H](COP(=O)(O)O)Cc1ccc(OCc2cc(OCC)ccn2)cc1
15 | 6.76 | – | – | CCCCCCCC/C=C\CCCCCCCC(=O)N[C@@H](COP(=O)(O)O)Cc1ccc(OCc2ccccn2)cc1
16 | 6.03 | – | – | CCCCCCCC/C=C\CCCCCCCC(=O)N[C@H](COP(=O)(O)O)Cc1ccc(OCc2ccccn2)cc1
17 | 6.37 | 7.46 | 6.94 | CCCCCCCC/C=C\CCCCCCCC(=O)N[C@@H](COP(=O)(O)O)Cc1ccc(OCc2cc(OCCOC)ccn2)cc1
18 | 5.68 | – | 6.13 | CCCCCCCC/C=C\CCCCCCCC(=O)N[C@@H](COP(=O)(O)O)Cc1ccc(OCc2ccncc2)cc1
19 | 5.16 | – | < 5.00 | CCCCCCCC/C=C\CCCCCCCC(=O)N[C@H](COP(=O)(O)O)Cc1ccc(OCc2ccncc2)cc1
20 | 6.34 | – | 5.55 | CCCCCCCC/C=C\CCCCCCCC(=O)N[C@@H](COP(=O)(O)O)Cc1ccc(OCc2cccc(OC)n2)cc1
21 | 6.99 | – | 5.20 | CCCCCCCC/C=C\CCCCCCCC(=O)N[C@@H](COP(=O)(O)O)Cc1ccc(OCc2cc(OC)ccn2)cc1
22 | 5.96 | – | < 5.00 | CCCCCCCC/C=C\CCCCCCCC(=O)N[C@H](COP(=O)(O)O)Cc1ccc(OCc2cccc(OC)n2)cc1
23 | 7.32 | 7.72 | 7.08 | CCCCCCCC/C=C\CCCCCCCC(=O)N[C@@H](COP(=O)(O)O)Cc1ccc(OCc2cc(OCC(F)(F)F)ccn2)cc1
24 | 5.78 | 7.19 | 6.85 | CCCCCCCC/C=C\CCCCCCCC(=O)N[C@@H](COP(=O)(O)O)Cc1ccc(OCc2cc(OCCC)ccn2)cc1

— ChEMBL document CHEMBL1137137, “A novel series of 2-pyridyl-containing compounds as lysophosphatidic acid receptor antagonists: development of a nonhydrolyzable LPA3 receptor-selective antagonist” (Bioorg Med Chem Lett, 2004)
